Experimental data taken from PubChem BioAssay (NCI).
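In this assay, cells in 96-well plates receive the compound at five concentrations for 48 hours. Endpoints are linearly interpolated between the surrounding concentrations. TGI: total growth inhibition.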

Legend:
Experiment in all cases: NCI tumour cell line growth inhibition, 48 h
[1] = system: RXF-631 renal
[2] = system: P388/ADR leukemia
[3] = system: P388 leukemia

Structure (SMILES) | TGI [1] [µM] | TGI [2] [µM] | TGI [3] [µM]
O=S(O)CCCSSSCCCS(=O)O | > 100 |  | 
CN(C)c1cccc(OC(=O)NCCCl)c1 |  | > 100 | 
c1ccc2c(c1)SCCc1cn[nH]c1-2 |  | > 100 | > 100
CSCC(CO)NC(=O)/C=C/c1c(C)[nH]c(=O)[nH]c1=O (centres undefined) |  | > 875 | > 875
CO/C=C1\OC(=O)C=C1OC |  | > 100 | > 100
CN(c1ccccc1)c1nc(=[N+]2CCCC2)ss1 | > 100 |  | 
